The source of these data is ChEMBL document CHEMBL5260796, “Thiazolidinediones and PPAR orchestra as antidiabetic agents: From past to present” (Eur J Med Chem, 2017).

The subject of one assay is Rattus norvegicus. Briefly: Antidiabetic activity against STZ-induced diabetic Sprague-Dawley rat assessed as reduction in fasting blood glucose level at 0.1 mg/kg,po for 2 months. Type of assay: functional. Particulars: 1460 h. Also noted: scale not given: the % may be the effect or the level left.
In a further assay the test system is Mus musculus. Briefly: Antidiabetic activity against diabetic KKAy mouse model assessed as decrease in plasma glucose level at 50 mg/kg,po by glucose analyzer. In kind it is functional. Also noted: scale not given: the % may be the effect or the level left.

Take `Cc1oc(-c2ccccc2)nc1CCC(=O)c1ccc(CC2SC(=O)NC2=O)cc1` (configuration not stated) [DARGLITAZONE]: in the assay on Rattus norvegicus, the Activity came out at 80%.

As to `Cc1c(C)c2c(c(C)c1O)CCC(C)(COc1ccc(CC3SC(=O)NC3=O)cc1)O2` (configuration not stated) [TROGLITAZONE], the Activity in the assay with Mus musculus came out at 38.5%.
